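1) Cells in 96-well plates. 2) Compound, 48 h, 5 concentrations. 3) Linear interpolation between surrounding doses. 4) Unreached endpoint = highest concentration. GI50: concentration for 50% inhibition of growth.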 Active and inactive are the calls of the source. Rule as the data show it: active = GI50 up to about 1.1 µM and inactive = higher.
Assays:
Experiment in all cases: NCI anticancer screen, dose series, 48 h
LOX IMVI = system: LOX IMVI
SF-295 = system: SF-295
SW-620 = system: SW-620
MDA-N = system: MDA-N
HCT-15 = system: HCT-15
786-0 = system: 786-0
CCRF-CEM = system: CCRF-CEM
RPMI-8226 = system: RPMI-8226
HCC 2998 = system: HCC 2998
TK-10 = system: TK-10
MDA-MB-231 = system: MDA-MB-231
OVCAR-5 = system: OVCAR-5
OVCAR-8 = system: OVCAR-8
SK-MEL-5 = system: SK-MEL-5
K562 = system: K562
A549 = system: A549
IGROV-1 = system: IGROV-1
EKVX = system: EKVX
SF-539 = system: SF-539
NCI/ADR-RES = system: NCI/ADR-RES
SK-OV-3 = system: SK-OV-3
COLO 205 = system: COLO 205
UACC-257 = system: UACC-257
UO-31 = system: UO-31
NCI-H460 = system: NCI-H460
PC-3 = system: PC-3
MCF7 = system: MCF7
KM12 = system: KM12
MOLT-4 = system: MOLT-4
MDA-MB-435 = system: MDA-MB-435
Malme-3M = system: Malme-3M
U-251 = system: U-251
OVCAR-3 = system: OVCAR-3
SNB-19 = system: SNB-19
HOP-62 = system: HOP-62
NCI-H23 = system: NCI-H23
A498 = system: A498
M14 = system: M14
SN12C = system: SN12C
RXF 393 = system: RXF 393
HL-60 = system: HL-60
HOP-92 = system: HOP-92
T47D = system: T47D
OVCAR-4 = system: OVCAR-4
SNB-75 = system: SNB-75
Hs-578T = system: Hs-578T
SF-268 = system: SF-268
HT-29 = system: HT-29
NCI-H522 = system: NCI-H522
DU-145 = system: DU-145
CAKI-1 = system: CAKI-1
ACHN = system: ACHN
NCI-H226 = system: NCI-H226
HCT-116 = system: HCT-116
SK-MEL-28 = system: SK-MEL-28
SK-MEL-2 = system: SK-MEL-2
SR = system: SR
UACC-62 = system: UACC-62

O=C1c2c(ccc3c2CCC3)CC12Cc1ccccc1C2
GI50 (LOX IMVI): 12.7 µM (inactive)
GI50 (SF-295): 91.4 µM (inactive)
GI50 (SW-620): 8.41 µM (inactive)
GI50 (MDA-N): 2.94 µM (inactive)
GI50 (HCT-15): 15.6 µM
GI50 (786-0): 20.7 µM (inactive)
GI50 (CCRF-CEM): 11.4 µM (inactive)
GI50 (RPMI-8226): 7.38 µM (inactive)
GI50 (HCC 2998): 22 µM (inactive)
GI50 (TK-10): 21.5 µM (inactive)
GI50 (MDA-MB-231): 22.4 µM (inactive)
GI50 (OVCAR-5): 30 µM (inactive)
GI50 (OVCAR-8): 20.5 µM (inactive)
GI50 (SK-MEL-5): 10.9 µM (inactive)
GI50 (K562): 20.5 µM (inactive)
GI50 (A549): 22.3 µM (inactive)
GI50 (IGROV-1): 29 µM (inactive)
GI50 (EKVX): 22.5 µM (inactive)
GI50 (SF-539): 12.2 µM (inactive)
GI50 (NCI/ADR-RES): 28.4 µM (inactive)
GI50 (SK-OV-3): 17.9 µM (inactive)
GI50 (COLO 205): 16.6 µM (inactive)
GI50 (UACC-257): 22.1 µM (inactive)
GI50 (UO-31): 5.27 µM (inactive)
GI50 (NCI-H460): 7.03 µM (inactive)
GI50 (PC-3): 25.1 µM (inactive)
GI50 (MCF7): 27.5 µM (inactive)
GI50 (KM12): 22.5 µM (inactive)
GI50 (MOLT-4): 5.04 µM (inactive)
GI50 (MDA-MB-435): 13.2 µM (inactive)
GI50 (Malme-3M): 18.9 µM (inactive)
GI50 (U-251): 22.2 µM (inactive)
GI50 (OVCAR-3): 17.7 µM (inactive)
GI50 (SNB-19): 33.7 µM (inactive)
GI50 (HOP-62): 20.9 µM (inactive)
GI50 (NCI-H23): 20.8 µM (inactive)
GI50 (A498): 12.4 µM (inactive)
GI50 (M14): 19.8 µM (inactive)
GI50 (SN12C): 19.5 µM (inactive)
GI50 (RXF 393): 11.5 µM (inactive)
GI50 (HL-60): 10.4 µM (inactive)
GI50 (HOP-92): 10.5 µM (inactive)
GI50 (T47D): 28.2 µM (inactive)
GI50 (OVCAR-4): 31.2 µM (inactive)
GI50 (SNB-75): 21.5 µM (inactive)
GI50 (Hs-578T): 21.4 µM (inactive)
GI50 (SF-268): 33.7 µM (inactive)
GI50 (HT-29): 9.08 µM (inactive)
GI50 (NCI-H522): 11.6 µM (inactive)
GI50 (DU-145): 17.7 µM (inactive)
GI50 (CAKI-1): 5.94 µM (inactive)
GI50 (ACHN): 13.7 µM (inactive)
GI50 (NCI-H226): 18 µM (inactive)
GI50 (HCT-116): 5.92 µM (inactive)
GI50 (SK-MEL-28): 25 µM (inactive)
GI50 (SK-MEL-2): 21.4 µM (inactive)

CCCN(CCC)C(=O)c1c(Cl)c2cccnc2n2c(C)cnc12
GI50 (LOX IMVI): > 100 µM (inactive)
GI50 (SF-295): > 100 µM (inactive)
GI50 (SW-620): 23.2 µM (inactive)
GI50 (MDA-N): 23.6 µM (inactive)
GI50 (786-0): > 100 µM (inactive)
GI50 (CCRF-CEM): 51.8 µM (inactive)
GI50 (RPMI-8226): 39.5 µM (inactive)
GI50 (SR): 32.9 µM (inactive)
GI50 (HCC 2998): 97.9 µM (inactive)
GI50 (TK-10): > 100 µM (inactive)
GI50 (MDA-MB-231): 31.8 µM (inactive)
GI50 (OVCAR-5): > 100 µM (inactive)
GI50 (OVCAR-8): > 100 µM (inactive)
GI50 (SK-MEL-5): 37.8 µM (inactive)
GI50 (K562): 26.3 µM (inactive)
GI50 (A549): 48.8 µM (inactive)
GI50 (IGROV-1): 64.4 µM (inactive)
GI50 (EKVX): > 100 µM (inactive)
GI50 (SF-539): > 100 µM (inactive)
GI50 (NCI/ADR-RES): 50.4 µM (inactive)
GI50 (SK-OV-3): 58.9 µM (inactive)
GI50 (COLO 205): 49.5 µM (inactive)
GI50 (UACC-257): 95.3 µM (inactive)
GI50 (UO-31): 38.8 µM (inactive)
GI50 (NCI-H460): 76.9 µM (inactive)
GI50 (PC-3): 23.9 µM (inactive)
GI50 (MCF7): 47.9 µM (inactive)
GI50 (UACC-62): 52.7 µM (inactive)
GI50 (KM12): 51.1 µM (inactive)
GI50 (MOLT-4): 33.3 µM (inactive)
GI50 (MDA-MB-435): 27.2 µM (inactive)
GI50 (Malme-3M): > 100 µM (inactive)
GI50 (OVCAR-3): 47.9 µM (inactive)
GI50 (SNB-19): > 100 µM (inactive)
GI50 (HOP-62): > 100 µM (inactive)
GI50 (NCI-H23): 90.2 µM (inactive)
GI50 (A498): 69.5 µM (inactive)
GI50 (M14): 61.2 µM (inactive)
GI50 (SN12C): > 100 µM (inactive)
GI50 (RXF 393): 35 µM (inactive)
GI50 (HL-60): 23.1 µM (inactive)
GI50 (HOP-92): 73.3 µM (inactive)
GI50 (T47D): 11.7 µM (inactive)
GI50 (OVCAR-4): > 100 µM (inactive)
GI50 (SNB-75): 62.7 µM (inactive)
GI50 (Hs-578T): > 100 µM (inactive)
GI50 (SF-268): 96.2 µM (inactive)
GI50 (HT-29): > 100 µM (inactive)
GI50 (NCI-H522): > 100 µM (inactive)
GI50 (DU-145): > 100 µM (inactive)
GI50 (CAKI-1): 22.9 µM (inactive)
GI50 (ACHN): > 100 µM (inactive)
GI50 (NCI-H226): > 100 µM (inactive)
GI50 (HCT-116): 48.3 µM (inactive)
GI50 (SK-MEL-28): > 100 µM (inactive)

Source: ChEMBL document CHEMBL1201862, “PubChem BioAssay data set” (2004)
